Measured values from patent US10857245B2, “Diagnostic imaging agent for early bone metastasis from cancer” (NIHON MEDI-PHYSICS CO., LTD., priority 2015, dated 2020).

What was measured:
[1] = tested on: bone metastasis from prostate cancer; assay: PET/CT imaging of patient with prostate cancer, compared with bone scintigraphy and whole body contrast enhanced CT; settings: untreated patient with prostate cancer; 263.1 MBq intravenously; whole body PET finished by 30 minutes
[2] = tested on: bone metastasis from rat breast cancer cell line MRMT-1; assay: Autoradiography in rat model of osteolytic bone metastasis from breast cancer; format: in vivo; settings: limb transplanted with MRMT-1 (right hind limb), day 12 to 14 after transplantation; tail vein; sacrifice after 30 minutes (^99mTc-HMDP 2 hours)
Description: A rat breast cancer cell line MRMT-1 was obtained from RIKEN BioResource Center. MRMT-1 was subcultured using a medium RPMI1640 (manufactured by Life Technologies Japan Ltd.) with 10% fetal bovine serum (American Type Culture Collection), 100 U/mL penicillin (manufactured by Life Technologies Japan Ltd.), and 0.1 mg/mL streptomycin (manufactured by Life Technologies Japan Ltd). On the day of transplantation, the medium in a culture vessel was removed and Trypsin-EDTA solution (manufactured by Life Technologies Japan Ltd.) maintained at 37° C. was added to the culture vessel, which was left to stand at 37° C. for about 5 minutes. After MRMT-1 was detached from the surface of the culture vessel, the above-mentioned medium was added to the culture vessel in an amount equal to that of Trypsin-EDTA solution. MRMT-1 was precipitated by centrifugation (800 rpm, 5 min) and its supernatant was removed, and a cell suspension in which MRMT-1 was suspended in Hank's buffer (manufactured by Life Technologies Japan Ltd.) at a concentration of 2.5×10^5 cells/mL was then produced.
An anti-inflammatory analgesic, Metacam 0.5% Solution for Injection (manufactured by Boehringer Ingelheim Vetmedica Japan Co., Ltd.) was subcutaneously injected into the groin of the right hind limb of 9-week-old male SD rat (Japan SLC, Inc.) at a rate of 0.2 mg/kg under isoflurane (manufactured by Mylan) anesthesia, and the skin in the groin was then incised. Next, the saphenous artery, the saphenous vein and the nerve parallel thereto were removed from muscles and isolated, and a surgical suture (3-0) was passed under the saphenous artery in the portion distal to the popliteal artery bifurcation. In addition, tissues around the superficial epigastric artery bifurcation were removed and a surgical suture (3-0) was passed under the femoral artery between the superficial epigastric artery bifurcation and the popliteal artery bifurcation (the portion slightly distal to the superficial epigastric artery bifurcation). Subsequently, a few drops of Papaverine Hydrochloride Injection 40 mg (manufactured by Nichi-Iko Pharmaceutical Co., Ltd.) was added dropwise around the saphenous artery to relax vascular smooth muscle, and each end of the surgical suture passed under the saphenous artery and the femoral artery was picked up with forceps, and the saphenous artery and the femoral artery were lifted to compress the arteries. A cotton swab was put under the saphenous artery to retain the saphenous artery, and an injection needle was inserted from the distal portion of the saphenous artery in the central direction, and MRMT-1 suspension (0.1 mL) was slowly injected. […]

[3] = tested on: bone metastasis from breast cancer cells (MRMT-1); assay: Triple tracer autoradiography in rat models of intertrabecular and osteolytic bone metastasis from breast cancer; format: in vivo; settings: intertrabecular model day 6 and day 8, osteolytic model day 11 after transplantation; three tracers in an identical rat
Description: MRMT-1 suspension was prepared in the same way as the MRMT-1 suspension prepared in Example 1.
A model of intertrabecular bone metastasis was prepared in the same way as the rat model of osteolytic bone metastasis prepared in Example 1 except that a MRMT-1 suspension was injected into right and left saphenous arteries of the 12-week old male SD rat (Japan SLC, Inc.), which was used for the following experiment at day 6 or day 8 after the transplantation. The lesion appeared only in right hind limb of the model at day 6 after the transplantation and left limb of the model at day 8 after the transplantation.
A model of osteolytic bone metastasis was prepared in the same way as the rat model of osteolytic bone metastasis prepared in Example 1 except that the model was produced from 12-week old male SD rat (Japan SLC, Inc.), and used for the following experiment at day 11 after the transplantation. […]

[4] = tested on: bone metastasis from breast cancer; settings: human, in vivo; cited from earlier work

Row | Compound | visualization of lesions which were not visualized on bone scintigraphy and whole body contrast enhanced CT [1] | accumulation in bone metastasis in the osteolytic lesion area (autoradiogram, arrow A) [2] | accumulation in bone metastasis prior to the formation of osteolytic lesion, not detectable in X-ray image (autoradiogram, arrow B) [2] | accumulation in the early focal site of bone metastasis (autoradiogram) [3] | combined sensitivity of all sites [4] | detection rate of osteoblastic bone metastasis [4] | detection rate of osteolytic bone metastasis [4]
1 | N[C@]1(C(=O)O)C[C@@H](F)C1 [^18F-fluciclovine, trans-1-amino-[^18F]fluorocyclobutanecarboxylic acid] | visualized |  |  |  |  |  | 
2 | technetium[^99mTc]hydroxymethylene diphosphonate [^99mTc-HMDP] |  | observed in neither | observed in neither | no accumulation | 78.2% | 100% | 70.0%
3 | N[14C]1(C(=O)O)CC(F)C1 (stereo not drawn) [^14C-fluciclovine, trans-1-amino-3-fluorocyclobutane-1-[^14C]carboxylic acid] |  | accumulated | also accumulated | accumulated |  |  | 
